Measured values as given in patent US9644011B2 (priority 2005, dated 2017).

How the values were obtained:
mouse sciatic nerve = conditions: cited from earlier work
muscle strength of mice = conditions: mouse, in vivo

Row | SMILES | concentration necessary for similar inhibitory effect on mouse sciatic nerve (mouse sciatic nerve) | time to decrease of 50% of the relative strength (muscle strength of mice) [min]
1 | CCN(CC)CC(=O)Nc1c(C)cccc1C [lidocaine] | Millimolar concentrations | –
2 | CCN(CC)CCOC(=O)c1ccc(N)cc1 [procaine] | – | ~10
